This passage reports Ki and IC50 results from patent US20190085024A1, “Alpha-Ketoamide Inhibitors Of Cysteine Proteases” (Phelix Therapeutics, priority 2017, published 2019).

Read-outs that look alike come from different tables or passages of the source.

Test [1] has as its target Cathepsin L (Homo sapiens, UniProt P07711). As to the kind of experiment: Cathepsin L enzyme assay. Particulars: Ki by Morrison equation; pH 5.5, substrate Z-Phe-Arg-Amc; read-out: Cat L. The class given is biochemical. An excerpt:
Two wells contained DMSO only for controls.
Velocity was converted to μM/sec.

The target of test [2] is Cat S (Homo sapiens, UniProt P25774). As to the kind of experiment: Cat S inhibition. The test is classed as biochemical.
For test [3], the target named is T1, Cat K (Homo sapiens, UniProt P43235).
T1 sequence (P43235 115-329): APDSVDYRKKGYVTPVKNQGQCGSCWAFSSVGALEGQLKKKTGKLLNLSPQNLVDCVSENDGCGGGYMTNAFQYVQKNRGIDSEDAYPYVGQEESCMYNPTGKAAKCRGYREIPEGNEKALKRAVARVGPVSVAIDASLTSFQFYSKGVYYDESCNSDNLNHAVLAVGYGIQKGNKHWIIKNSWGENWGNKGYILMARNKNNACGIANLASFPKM
Briefly: Cat K inhibition. The class given is biochemical.

Test [4] addresses Calpain. As to the kind of experiment: Calpain enzyme assay. The class given is biochemical. The conditions noted are these: Ki by Morrison equation; pH 7.5, 5 mM CaCl2.
Test [5] relates to EBOV WT (Ebola Wild Type). As to the kind of experiment: microbe, parasite or virus in culture. The test is classed as cell-based. The conditions noted are these: read-out: EBOV WT (μM) (Ebola Wild Type).
Test [6] relates to MERS WT. As to the kind of experiment: microbe, parasite or virus in culture. The test is classed as cell-based.
For test [7], the target named is Cathepsin B (Homo sapiens, UniProt P07858). Briefly: Cathepsin B enzyme assay. Particulars: Cat B (μM), Ki by Morrison equation; pH 6.0, substrate Z-Phe-Arg-Amc.
The mark [8] stands for this setting: Middle East respiratory syndrome-related coronavirus, read-out: MERS WT (μM).

Cat S, sequence (P25774 115-331): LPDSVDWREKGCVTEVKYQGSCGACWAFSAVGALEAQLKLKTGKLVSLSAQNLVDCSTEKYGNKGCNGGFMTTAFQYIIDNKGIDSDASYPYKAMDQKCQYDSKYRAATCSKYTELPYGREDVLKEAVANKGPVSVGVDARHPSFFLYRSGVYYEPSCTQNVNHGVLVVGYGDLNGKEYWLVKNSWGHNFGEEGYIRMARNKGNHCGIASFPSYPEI
Cathepsin L, sequence (P07711 114-333, species assumed): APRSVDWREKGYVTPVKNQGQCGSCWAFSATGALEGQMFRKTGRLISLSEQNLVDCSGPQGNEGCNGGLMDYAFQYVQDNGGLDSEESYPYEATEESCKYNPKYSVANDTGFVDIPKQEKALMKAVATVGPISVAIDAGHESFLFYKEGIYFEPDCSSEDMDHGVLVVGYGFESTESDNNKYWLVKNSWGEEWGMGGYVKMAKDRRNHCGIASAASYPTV

Regarding `CC(NC(=O)C(Cc1cccc(C(F)(F)F)c1)NC(=O)Cc1ccccc1)C(=O)C(=O)NC(Cc1ccccc1)C(=O)NC(C)(C)C(N)=O` (stereo not shown) [PHELIX209, N-(1-((1-amino-2-methyl-1-oxopropan-2-yl)amino)-1-oxo-3-phenylpropan-2-yl)-2-oxo-3-(2-(2-phenylacetamido)-3-(3-(trifluoromethyl)phenyl)propanamido)butanamide], the Ki in test [1] is 66.3 nM; in test [2], 39.9 nM; in test [3], above 10000 nM; in test [4], above 10000 nM; in test [7] it was 0.234 µM. Moreover, the IC50 was 7.87 µM in test [5] (Zaire ebolavirus) and above 10 µM in test [6] (setting [8]).
For `CC(C)CC(NC(=O)C(=O)C(C)NC(=O)C(Cc1ccccc1)NC(=O)Cc1ccccc1)C(=O)NC(C)(C)C(N)=O` (stereo not shown) [PHELIX214, N-(1-amino-2-methyl-1-oxopropan-2-yl)-4-methyl-2-(2-oxo-3-(3-phenyl-2-(2-phenylacetamido)propanamido)butanamido)pentanamide], the Ki is 281 nM in test [1]; 39.8 nM in test [2]; 2460 nM in test [3]; 85400 nM in test [4]; 5.79 µM in test [7]. Further, the IC50 is 24.2 µM in test [5] (Zaire ebolavirus) and above 10 µM in test [6] (setting [8]).
On to `CC(NC(=O)C(Cc1ccccc1)NC(=O)Cc1cccc(F)c1)C(=O)C(=O)NC(Cc1ccccc1)C(=O)NC(C)(C)C(N)=O` (stereo not shown) [PHELIX227, N-(1-((1-amino-2-methyl-1-oxopropan-2-yl)amino)-1-oxo-3-phenylpropan-2-yl)-3-(2-(2-(3-fluorophenyl)acetamido)-3-phenylpropanmido)-2-oxobutanamide], for which the Ki in test [1] was 58.9 nM; in test [2], 16.3 nM; in test [3], 536 nM; in test [4] it was above 10000 nM; in test [7] it was 0.171 µM. The IC50 in test [5] (Zaire ebolavirus) is 16.8 µM; in test [6] (setting [8]), above 10 µM.
Consider `CC(NC(=O)C(Cc1cccc(F)c1)NC(=O)Cc1ccccc1)C(=O)C(=O)NC(Cc1ccccc1)C(=O)NC(C)(C)C(N)=O` (stereo not shown) [PHELIX212, N-(1-((1-amino-2-methyl-1-oxopropan-2-yl)amino)-1-oxo-3-phenylpropan-2-yl)-3-(3-(3-fluorophenyl)-2-(2-phenylacetamido)propanamido)-2-oxobutanamide], for which the Ki was 20.3 nM in test [1]; 13.7 nM in test [2]; 1200 nM in test [3]; above 10000 nM in test [4]; 0.231 µM in test [7]. Also, the IC50 in test [5] (Zaire ebolavirus) turned out to be 7.41 µM; in test [6] (setting [8]), 139 µM.
Take `CC(NC(=O)C(Cc1ccccc1)NC(=O)Cc1ccccc1)C(=O)C(=O)NC(Cc1ccccc1)C(=O)NC(Cc1ccc(C(C)(C)C)cc1)C(N)=O` (stereo not shown) [PHELIX221, N-(1-((1-amino-3-(4-(tert-butyl)phenyl)-1-oxopropan-2-yl)amino)-1-oxo-3-phenylpropan-2-yl)-2-oxo-3-(3-phenyl-2-(2-phenylacetamido)propanamido)butanamide]: the Ki in test [1] is 0.02 nM; in test [2], 0.19 nM; in test [3], 13.6 nM; in test [4], above 10000 nM; in test [7] it was 3.57 µM. The figures for the IC50 in test [5] (Zaire ebolavirus) and in test [6] (setting [8]) were 0.03 µM and 1.32 µM, respectively.
On to `CC(NC(=O)C(Cc1cccc2ccccc12)NC(=O)Cc1ccccc1)C(=O)C(=O)NC(Cc1ccccc1)C(=O)NC(C)(C)C(N)=O` (stereo not shown) [PHELIX205, N-(1-((1-amino-2-methyl-1-oxopropan-2-yl)amino)-1-oxo-3-phenylpropan-2-yl)-3-(3-(napthalen-1-yl)-2-(2-phenylacetamido)propanamido)-2-oxobutanamide], for which the Ki was determined as 70.4 nM in test [1]; 229 nM in test [2]; 6410 nM in test [3]; 12500 nM in test [4]; 0.977 µM in test [7]. For the same compound, the IC50 is 21.9 µM in test [5] (Zaire ebolavirus) and above 10 µM in test [6] (setting [8]).
Consider `CC(NC(=O)C(Cc1ccccc1)NC(=O)Cc1ccccc1)C(=O)C(=O)NC(Cc1ccccc1)C(=O)NC(Cc1ccc2ccccc2c1)C(N)=O` (stereo not shown) [PHELIX220, N-(1-((1-amino-3-(naphthalen-2-yl)-1-oxopropan-2-yl)amino)-1-oxo-3-phenylpropan-2-yl)-2-oxo-3-(3-phenyl-2-(2-phenylacetamido)propanamido)butanamide], for which the Ki was 0.05 nM in test [1]; 0.22 nM in test [2]; 21.9 nM in test [3]; above 10000 nM in test [4]; 5.1 µM in test [7]. The IC50 in test [5] was 0.06 µM; in test [6] (read-out: MERS WT), 3.15 µM.
For `Cc1ccccc1CC(=O)NC(Cc1ccccc1)C(=O)NC(C)C(=O)C(=O)NC(Cc1ccccc1)C(=O)NC(C)(C)C(N)=O` (stereo not shown) [PHELIX226, N-(1-((1-amino-2-methyl-1-oxopropan-2-yl)amino)-1-oxo-3-phenylpropan-2-yl)-2-oxo-3-(3-phenyl-2-(2-(o-tolyl)acetamido)propanamido)butanamide], the Ki in test [1] was 9.54 nM; in test [3] it was 1770 nM; in test [4], above 10000 nM; in test [7] it was 0.273 µM. Further, the values for the IC50 in test [5] (Zaire ebolavirus) and in test [6] (setting [8]) were 5.09 µM and 114 µM, respectively.
As for `CC(NC(=O)C(Cc1ccc(F)cc1)NC(=O)Cc1ccccc1)C(=O)C(=O)NC(Cc1ccccc1)C(=O)NC(C)(C)C(N)=O` (stereo not shown) [PHELIX208, N-(1-((1-amino-2-methyl-1-oxopropan-2-yl)amino)-1-oxo-3-phenylpropan-2-yl)-3-(3-(4-fluorophenyl)-2-(2-phenylacetamido)propanamido)-2-oxobutanamide], the Ki is 15.4 nM in test [1]; 3.73 nM in test [2]; 1920 nM in test [3]; above 10000 nM in test [4]; 0.42 µM in test [7]. For the same compound, the IC50 amounted to 8.15 µM in test [5] (Zaire ebolavirus) and 184 µM in test [6] (setting [8]).
Take `CC(NC(=O)C(Cc1ccccc1)NC(=O)c1ccccc1)C(=O)C(=O)NC(Cc1ccccc1)C(=O)NC(C)(C)C(N)=O` (stereo not shown) [PHELIX223, N-(1-((4-((1-((1-amino-2-methyl-1-oxopropan-2-yl)amino)-1-oxo-3-phenylpropan-2-yl)amino)-3,4-dioxobutan-2-yl)amino)-1-oxo-3-phenylpropan-2-yl)benzamide]: the Ki in test [1] is 19.9 nM; in test [2], 4.44 nM; in test [3] it was 281 nM; in test [4] it was above 10000 nM; in test [7], 0.246 µM. The IC50 in test [5] (Zaire ebolavirus) stood at 5.61 µM; in test [6] (setting [8]), 35.3 µM.
With `CC(NC(=O)C(Cc1ccccc1)NC(=O)c1cccc(F)c1)C(=O)C(=O)NC(Cc1ccccc1)C(=O)NC(C)(C)C(N)=O` (stereo not shown) [PHELIX222, N-(1-((4-((1-((1-amino-2-methyl-1-oxopropan-2-yl)amino)-1-oxo-3-phenylpropan-2-yl)amino)-3,4-dioxobutan-2-yl)amino)-1-oxo-3-phenylpropan-2-yl)-3-fluorobenzamide], the Ki was 25 nM in test [1]; 17.7 nM in test [2]; 3320 nM in test [3]; above 10000 nM in test [4]; 1.83 µM in test [7]. The figures for the IC50 in test [5] (Zaire ebolavirus) and in test [6] (setting [8]) were 5.19 µM and 151 µM, respectively.
